These results are taken from US9932340B2, “Substituted indoles” (AbbVie Inc., priority 2014, dated 2018).

The target of the assay is SUV420H1 enzyme (Homo sapiens, UniProt Q4FZB7). In words: TR-FRET SAH SUV420H1 enzyme inhibition assay. It is filed as biochemical. Conditions: Histone Peptide H4(8-30)me1 and SAM, overnight at room temp, TR-FRET detection of SAH, read-out: TR-FRET SAH_SUV420H1 IC50. In outline: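 SUV420H1 (90 nM) preincubated 30 min with compound (3-fold dilutions, 50 to 0.00075 μM), then H4(8-30)me1 peptide 5 nM and SAM 4 nM added, overnight at room temp. SAH product detected by TR-FRET with Tb anti-SAH antibody and Oregon Green-SAH in RIPA buffer, 4 h; IC50 from Hill fit, asymptotes fixed 0-100%.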
SUV420H1 enzyme, sequence (Q4FZB7 whole entry): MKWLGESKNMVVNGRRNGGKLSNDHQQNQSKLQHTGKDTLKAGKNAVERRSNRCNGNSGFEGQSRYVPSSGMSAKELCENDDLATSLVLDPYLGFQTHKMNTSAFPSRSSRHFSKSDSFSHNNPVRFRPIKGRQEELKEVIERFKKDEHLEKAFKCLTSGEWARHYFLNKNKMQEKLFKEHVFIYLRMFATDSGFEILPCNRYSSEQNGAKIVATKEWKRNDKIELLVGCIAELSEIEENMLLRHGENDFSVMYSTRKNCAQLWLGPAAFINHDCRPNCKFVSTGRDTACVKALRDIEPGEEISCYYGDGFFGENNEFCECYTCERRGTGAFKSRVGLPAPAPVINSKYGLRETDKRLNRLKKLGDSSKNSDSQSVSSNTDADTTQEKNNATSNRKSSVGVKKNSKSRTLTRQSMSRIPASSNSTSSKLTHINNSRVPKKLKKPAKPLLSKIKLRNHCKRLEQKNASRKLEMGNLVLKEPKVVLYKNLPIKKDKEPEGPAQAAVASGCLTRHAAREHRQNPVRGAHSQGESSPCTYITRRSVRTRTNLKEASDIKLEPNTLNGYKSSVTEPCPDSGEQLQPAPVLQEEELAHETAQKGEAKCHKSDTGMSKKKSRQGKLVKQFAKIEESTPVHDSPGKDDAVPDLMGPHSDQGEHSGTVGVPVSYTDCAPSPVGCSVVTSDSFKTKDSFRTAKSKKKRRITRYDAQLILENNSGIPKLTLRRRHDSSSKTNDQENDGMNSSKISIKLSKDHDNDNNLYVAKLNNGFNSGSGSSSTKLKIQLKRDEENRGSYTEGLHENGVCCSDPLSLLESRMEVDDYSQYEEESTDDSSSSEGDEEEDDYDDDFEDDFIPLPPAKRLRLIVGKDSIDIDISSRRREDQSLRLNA
A general note: In TR-FRET formats the signal depends on donor and acceptor labels being close together.
Regarding `Cc1cc(C(=O)NCc2cc3c(Cl)ccc(Cn4cnc5c(N)ncnc54)c3[nH]2)c(C)nn1` [Example 239, N-({7-[(6-amino-9H-purin-9-yl)methyl]-4-chloro-1H-indol-2-yl}methyl)-3,6-dimethylpyridazine-4-carboxamide], the IC50 turned out to be 54.7 nM. Take `Cn1ncc2ccc(C(=O)NCc3cc4cc(Cl)cc(Cn5cnc6c(N)ncnc65)c4[nH]3)cc21` [Example 360, N-({7-[(6-amino-9H-purin-9-yl)methyl]-5-chloro-1H-indol-2-yl}methyl)-1-methyl-1H-indazole-6-carboxamide]: the IC50 stood at 747 nM. Next, `CCc1ccccc1C(=O)NCc1cc2cc(Cl)cc(Cn3cnc4c(N)ncnc43)c2[nH]1` [Example 296, N-({7-[(6-amino-9H-purin-9-yl)methyl]-5-chloro-1H-indol-2-yl}methyl)-2-ethylbenzamide]: 623 nM; `Nc1ncnc2c1ncn2Cc1cc(Cl)cc2cc(CNC(=O)Cc3ccccc3F)[nH]c12` [Example 256, N-({7-[(6-amino-9H-purin-9-yl)methyl]-5-chloro-1H-indol-2-yl}methyl)-2-(2-fluorophenyl)acetamide]: above 50000 nM. `Nc1ncnc2c1ncn2Cc1cc(Cl)cc2cc(CNC(=O)CC3CCCC3)[nH]c12` [Example 121, N-({7-[(6-amino-9H-purin-9-yl)methyl]-5-chloro-1H-indol-2-yl}methyl)-2-cyclopentylacetamide]: the concentration for half-maximal inhibition (IC50) came out at 2560 nM. Take `COC1CCC(C(=O)NCc2cc3cc(Cl)cc(Cn4cnc5c(N)ncnc54)c3[nH]2)CC1` (stereo not shown) [Example 134, N-({7-[(6-amino-9H-purin-9-yl)methyl]-5-chloro-1H-indol-2-yl}methyl)-4-methoxycyclohexanecarboxamide]: the IC50 is 1270 nM.

For the molecule `Nc1ncnc2c1ncn2Cc1cc(Cl)cc2cc(CNC(=O)C3CCCC3)[nH]c12` [Example 119, N-({7-[(6-amino-9H-purin-9-yl)methyl]-5-chloro-1H-indol-2-yl}methyl)cyclopentanecarboxamide], the IC50 was found to be 6410 nM. In the case of `Cn1cncc1C(=O)NCc1cc2cc(Cl)cc(Cn3cnc4c(N)ncnc43)c2[nH]1` [Example 153, N-({7-[(6-amino-9H-purin-9-yl)methyl]-5-chloro-1H-indol-2-yl}methyl)-1-methyl-1H-imidazole-5-carboxamide], the IC50 stood at 4400 nM.

On to `N#Cc1ccc(-c2ccc(Cn3cnc4c(N)ncnc43)c3[nH]c(CN)cc23)cc1` [Example 82, 4-{2-(aminomethyl)-7-[(6-amino-9H-purin-9-yl)methyl]-1H-indol-4-yl}benzonitrile], for which the IC50 came out at 939 nM.

`Nc1ncnc2c1ncn2Cc1cc(Cl)cc2cc(CNC(=O)c3ccc4ncoc4c3)[nH]c12` [Example 338, N-({7-[(6-amino-9H-purin-9-yl)methyl]-5-chloro-1H-indol-2-yl}methyl)-1,3-benzoxazole-6-carboxamide]: the IC50 is 2850 nM. Next, `Nc1ncnc2c1ncn2Cc1cc(Cl)cc2cc(CNC(=O)c3cnc4[nH]ccc4c3Cl)[nH]c12` [Example 348, N-({7-[(6-amino-9H-purin-9-yl)methyl]-5-chloro-1H-indol-2-yl}methyl)-4-chloro-1H-pyrrolo[2,3-b]pyridine-5-carboxamide]: 7270 nM. On to `Cn1ccnc1C(=O)NCc1cc2cc(Cl)cc(Cn3cnc4c(N)ncnc43)c2[nH]1` [Example 154, N-({7-[(6-amino-9H-purin-9-yl)methyl]-5-chloro-1H-indol-2-yl}methyl)-1-methyl-1H-imidazole-2-carboxamide], for which the IC50 came to 4770 nM. As for “4-{[({7-[(6-amino-9H-purin-9-yl)methyl]-5-chloro-1H-indol-2-yl}methyl)amino]methyl}-N,N-dimethylbenzamide [Example 318]”, the IC50 was 3490 nM. Consider `Nc1ncnc2c1ncn2Cc1cc(Cl)cc2cc(CNC(=O)c3cccs3)[nH]c12` [Example 144, N-({7-[(6-amino-9H-purin-9-yl)methyl]-5-chloro-1H-indol-2-yl}methyl)thiophene-2-carboxamide], for which the IC50 turned out to be 4600 nM. As to `Cc1nc(C)c(C(=O)NCc2cc3cc(Cl)cc(Cn4cnc5c(N)ncnc54)c3[nH]2)s1` [Example 161, N-({7-[(6-amino-9H-purin-9-yl)methyl]-5-chloro-1H-indol-2-yl}methyl)-2,4-dimethyl-1,3-thiazole-5-carboxamide], the IC50 came out at 856 nM. For the molecule `Nc1ncnc2c1ncn2Cc1cc(Cl)cc2cc(C(N)Cc3ccccc3)[nH]c12` (stereo not shown) [Example 206, 9-{[2-(1-amino-2-phenylethyl)-5-chloro-1H-indol-7-yl]methyl}-9H-purin-6-amine], the concentration for half-maximal inhibition (IC50) came to 1050 nM. With `NCc1cc2cc(-c3cccc(C(=O)N4CCOCC4)c3)cc(Cn3cnc4c(N)ncnc43)c2[nH]1` [Example 53, (3-{2-(aminomethyl)-7-[(6-amino-9H-purin-9-yl)methyl]-1H-indol-5-yl}phenyl)(morpholin-4-yl)methanone], the IC50 was found to be 590 nM. As for `CCCCc1nc2cc(C(=O)NCc3cc4cc(Cl)cc(Cn5cnc6c(N)ncnc65)c4[nH]3)ccc2o1` [Example 379, N-({7-[(6-amino-9H-purin-9-yl)methyl]-5-chloro-1H-indol-2-yl}methyl)-2-butyl-1,3-benzoxazole-5-carboxamide], the 50% inhibitory concentration (IC50) was 765 nM. Next, `Cc1noc(C)c1C(=O)NCc1cc2cc(-c3ccc(F)cc3)cc(Cn3cnc4c(N)ncnc43)c2[nH]1` [Example 165, N-({7-[(6-amino-9H-purin-9-yl)methyl]-5-(4-fluorophenyl)-1H-indol-2-yl}methyl)-3,5-dimethyl-1,2-oxazole-4-carboxamide]: 233 nM. In the case of `Cc1noc(C)c1C(=O)NCc1cc2cc(-c3ccc(C#N)cc3)cc(Cn3cnc4c(N)ncnc43)c2[nH]1` [Example 171, N-({7-[(6-amino-9H-purin-9-yl)methyl]-5-(4-cyanophenyl)-1H-indol-2-yl}methyl)-3,5-dimethyl-1,2-oxazole-4-carboxamide], the IC50 came out at 173 nM.

Take `N#CCc1ccc(-c2cc(Cn3cnc4c(N)ncnc43)c3[nH]c(CN)cc3c2)cc1` [Example 45, (4-{2-(aminomethyl)-7-[(6-amino-9H-purin-9-yl)methyl]-1H-indol-5-yl}phenyl)acetonitrile]: the IC50 is 356 nM. Turning to `Cc1cc(C(=O)NCc2cc3cc(C4=CCC(F)(F)CC4)cc(Cn4cnc5c(N)ncnc54)c3[nH]2)c(C)nn1` [Example 236, N-({7-[(6-amino-9H-purin-9-yl)methyl]-5-(4,4-difluorocyclohex-1-en-1-yl)-1H-indol-2-yl}methyl)-3,6-dimethylpyridazine-4-carboxamide], the IC50 was 33.8 nM. On to `CCc1oncc1C(=O)NCc1cc2cc(Cl)cc(Cn3cnc4c(N)ncnc43)c2[nH]1` [Example 181, N-({7-[(6-amino-9H-purin-9-yl)methyl]-5-chloro-1H-indol-2-yl}methyl)-5-ethyl-1,2-oxazole-4-carboxamide], for which the IC50 was found to be 2860 nM. Turning to `COc1ccc(-c2ccc(Cn3cnc4c(N)ncnc43)c3[nH]c(CN)cc23)cc1` [Example 78, 9-{[2-(aminomethyl)-4-(4-methoxyphenyl)-1H-indol-7-yl]methyl}-9H-purin-6-amine], the IC50 was 632 nM. As to `CN(C)c1ccc(C(=O)NCc2cc3cc(Cl)cc(Cn4cnc5c(N)ncnc54)c3[nH]2)cc1` [Example 302, N-({7-[(6-amino-9H-purin-9-yl)methyl]-5-chloro-1H-indol-2-yl}methyl)-4-(dimethylamino)benzamide], the IC50 was above 50000 nM.

Usually IC50 stands for the point on the concentration scale where inhibition reaches its midpoint.
